Test results taken from ChEMBL document CHEMBL3507680, “University of Dundee, Gates Library screen for HepG2 cell viability”.

Experiment: Human HepG2 cell viability assay in 384 well format
Type: toxicity, cell-based
Set-up: dose 125 nL, time 70.5 hour; cytotoxicity at 70.5 h: concentration not given beside the values
Settings: HepG2 cells, read-out: Inhibition

CCc1ccc(CN2CCN(C)C3(CCC(=O)N(CC4CC4)CC3)C2)o1 (stereo unspecified)
cytotoxicity at 70.5 h: -1.68%

O=C(N1CCCC1)N1CCCC(c2nccn2Cc2ccncc2)C1 (stereo unspecified)
cytotoxicity at 70.5 h: -8.72%

CCCNC(=O)C(C)Nc1cccc(Oc2ccc(C#N)cn2)c1 (stereo unspecified)
cytotoxicity at 70.5 h: 24.3%

Cc1nc(NCc2ccccc2)cc(C(C)Cn2nc(C)c(C)c2C)n1 (stereo unspecified)
cytotoxicity at 70.5 h: 3.51%

c1ccc(Cn2cccn2)c(CNCC2CNc3ccnn3C2)c1 (stereo unspecified)
cytotoxicity at 70.5 h: -11.7%

Cc1cc(=O)c(C(=O)N2CCN(C)c3ccccc3C2)c[nH]1
cytotoxicity at 70.5 h: -9.5%

CS(=O)(=O)NCc1cc(-c2cc(F)cc(F)c2)nc(N2CC[C@H](O)C2)n1
cytotoxicity at 70.5 h: -10.5%

O=C1CCC(C(=O)NCCOc2ccccc2-c2ccccc2)CN1 (stereo unspecified)
cytotoxicity at 70.5 h: -13.3%

O=C(CCc1nnc(-c2ccccc2)o1)N1CCCC1c1ccc[nH]1 (stereo unspecified)
cytotoxicity at 70.5 h: -3.43%

CCc1nc(C2CCCN2CC(=O)Nc2c(C)n[nH]c2C)no1 (stereo unspecified)
cytotoxicity at 70.5 h: 5.42%

N#Cc1cc(N2CCC(S(N)(=O)=O)CC2)c2ccccc2n1
cytotoxicity at 70.5 h: -2.54%

CC(C)n1cc(N2CC(C(=O)N3CCC(C(N)=O)CC3)CC2=O)cn1 (stereo unspecified)
cytotoxicity at 70.5 h: -11.7%

CN(Cc1noc(C2CC2)n1)C1CCN(Cc2ccccc2C#N)C1 (stereo unspecified)
cytotoxicity at 70.5 h: 17.8%

CC(C)CN1CCC(C(=O)Nc2cc(C(F)(F)F)c[nH]c2=O)CC1
cytotoxicity at 70.5 h: -6.4%

CN1CCN(CCNC(=O)c2sccc2C2CC2)CC1
cytotoxicity at 70.5 h: -2.66%

CCc1nccn1-c1cncc(C2CCCN2Cc2cccnc2)n1 (stereo unspecified)
cytotoxicity at 70.5 h: -5.1%

Cc1nnc(C(C)Nc2cccc(COCC(F)(F)C(F)F)c2)o1 (stereo unspecified)
cytotoxicity at 70.5 h: 24.9%

O=C(CC1CN(Cc2ccccc2)CCO1)NC1CCSCC1 (stereo unspecified)
cytotoxicity at 70.5 h: 3.03%

Cc1cn2nc(N3CCN(Cc4nc(C(C)C)no4)CC3)sc2n1
cytotoxicity at 70.5 h: 19.7%

CC(C(=O)N1CCCN(Cc2ccc(C#N)cc2)CC1)n1ccnc1 (stereo unspecified)
cytotoxicity at 70.5 h: 0.793%

O=S(=O)(c1ccccc1Cl)N1CCCC(c2ncc[nH]2)C1 (stereo unspecified)
cytotoxicity at 70.5 h: -3.85%

CCc1ccc(-c2cn3c(C(=O)NCC(C)C(=O)NC)csc3n2)cc1 (stereo unspecified)
cytotoxicity at 70.5 h: -1.36%

CCC(CC)N(Cc1cc(=O)n(C)c(=O)n1C)C1CC1
cytotoxicity at 70.5 h: 5.26%

Cc1cccc(C2(CNC(=O)C(C)S(C)(=O)=O)CCCC2)c1 (stereo unspecified)
cytotoxicity at 70.5 h: -3.73%

CCc1cc(-c2nccn2-c2ccccc2CN2CCOCC2)on1
cytotoxicity at 70.5 h: 16.1%

CN(C)C(=O)Cn1ccc2cc(NC(=O)N3CCOCC3)ccc21
cytotoxicity at 70.5 h: -5.35%

CCNc1ncc(C(=O)NCCc2csc(CSC)n2)cn1
cytotoxicity at 70.5 h: -4.44%

Cc1cc(S(=O)(=O)Nc2cccc(I)c2)sc1C(=O)O
cytotoxicity at 70.5 h: 13.9%

CC(CNC(=O)c1c[nH]nn1)Oc1ccc(Cl)cc1 (stereo unspecified)
cytotoxicity at 70.5 h: -22.2%

Cc1nc(O)c2nnn(C[C@H]3CCCN3C(=O)c3cccs3)c2n1
cytotoxicity at 70.5 h: -7.34%

CCc1ncc2c(n1)CN(C(C)C(=O)Nc1ccc(Cl)cn1)CC2 (stereo unspecified)
cytotoxicity at 70.5 h: 20.7%

CC[C@@]1(O)CCN(C(=O)c2ccc(SC)cc2)C[C@H]1O
cytotoxicity at 70.5 h: 0.602%

N#Cc1cccnc1N1CCC(OCc2ccccc2)CC1
cytotoxicity at 70.5 h: -8.71%

Cc1nnc(NC(=O)NCCN(C(=O)OC(C)(C)C)C2CC2)s1
cytotoxicity at 70.5 h: -4.34%

COc1c(CNCc2ccc(N3CCOCC3)cc2)c(C)nn1C
cytotoxicity at 70.5 h: -9.85%

CNC(=O)CCc1cc(C2CCCCN2C(C)C)nc(C)n1 (stereo unspecified)
cytotoxicity at 70.5 h: -1.6%

Cc1c(-c2cccs2)nn2c(O)c3c(nc12)CN(C(=O)C1CC1)C3
cytotoxicity at 70.5 h: -4.82%

CN1CCC(CNC(=O)c2cccc(NC(N)=O)c2)c2ccccc21 (stereo unspecified)
cytotoxicity at 70.5 h: -2.27%

CNS(=O)(=O)c1ccc(C(=O)N2CCCC2c2ccccc2C)o1 (stereo unspecified)
cytotoxicity at 70.5 h: -1.59%

Cc1nccnc1N1CC[C@@H](NC(=O)c2cnccn2)[C@H](O)C1
cytotoxicity at 70.5 h: -8.55%

CCCS(=O)(=O)N1CCC(NC(=O)c2ccc(C)s2)CC1
cytotoxicity at 70.5 h: -8.95%

Cc1ccc(CNC(=O)CCNS(C)(=O)=O)cc1
cytotoxicity at 70.5 h: -5.54%

CN(Cc1ccc(F)cc1)CC1(O)CCN(C(=O)c2ccccn2)C1 (stereo unspecified)
cytotoxicity at 70.5 h: -12.9%

Cc1cc(C(=O)N2C[C@H]3CC[C@@H]2CN(C(=O)c2ccncc2)C3)cs1
cytotoxicity at 70.5 h: -1.99%

COc1cc(CNC(C)Cn2cccn2)cc2c1OCO2 (stereo unspecified)
cytotoxicity at 70.5 h: -9.7%

O=C(CCc1cscn1)N1CCCC(n2cncn2)C1 (stereo unspecified)
cytotoxicity at 70.5 h: 10.8%

CS(=O)(=O)NCc1cc(=O)n2c(n1)CN(CC1CC1)CCC2
cytotoxicity at 70.5 h: 7.49%

CCc1nc(CN2CCCCC2C(N)=O)cs1 (stereo unspecified)
cytotoxicity at 70.5 h: -2.28%

CNc1nc(C)cc(N2CCC(C(=O)O)(n3ccc(C(C)C)n3)CC2)n1
cytotoxicity at 70.5 h: -4.47%

OC[C@@H]1CCCN1c1ccc(-c2nc(CCc3ccccc3)no2)cn1
cytotoxicity at 70.5 h: -4.61%

COCCS(=O)(=O)Nc1cc(Cl)ccn1
cytotoxicity at 70.5 h: 14.3%

COCCNC(=O)C[C@@H]1COC[C@H]2CN(Cc3cccnc3)C[C@@H]12
cytotoxicity at 70.5 h: -0.897%

Cc1nc(CNCc2c(C(C)C)nn(C)c2N2CCOCC2)cs1
cytotoxicity at 70.5 h: -7.63%

Cc1nc(CN2CCCC(N(C)CCOCC(F)(F)F)C2)no1 (stereo unspecified)
cytotoxicity at 70.5 h: -6.75%

CS(=O)(=O)N[C@@H]1CN(C(=O)c2cnccn2)[C@@H]2CCCO[C@@H]21
cytotoxicity at 70.5 h: 29.4%

Fc1cnc(N2CC[C@@H](N3CCOCC3)[C@@H]2Cc2cccnc2)nc1
cytotoxicity at 70.5 h: 9.63%
